Reference: patent US12629376B2, “Composition for use in the treatment of ApoL1-associated disease” (RAMBAM MED-TECH LTD., priority 2020, dated 2026)

Tests used:
[1] = test system: ApoL1-G1-induced T-REx-293 stable cell line; test: ApoL1-G1-induced cell viability assay (CellTiter-Glo); type: cell-based, human; details: for viability of ApoL1-G1 expressing cells: FIG. 1, 16 hours incubation, 0.08-10 μM, 1 ng/ml Doxycycline, luminescence live-cell count; for cell protective effect against ApoL1 toxicity: cell-based high throughput screening of 200,000 compounds, doxycycline-induced ApoL1-G1 T-REx-293 cells; for cell protective effect against ApoL1 toxicity / cell toxicity: 10 μM; for cell toxicity: high throughput screening, T-REx-293 cells
Experimental: ApoL1-G1-induced T-REx-293 stable cell line was generated by introducing Flag-tagged human G1 ApoL1 variant DNA (with African genomic sequence background) into the pcDNA4/TO plasmid, which yield expression upon Doxycycline addition. Cells were cultured in DMEM (Gibco, 41965-039) supplemented with 10% FBS, 1% penicillin-streptomycin at 37° C.
In order to estimate the effect of compounds 1, 3 and 7 on ApoL1-induced cells a cell viability assay was performed as following: cells were seeded at density 23K cells per well (96-well plate). Prior to seeding, wells were coated with Fibronectin (Biological industries, 03-090-1-05) for 1 hour at 37° C. On the following day, cells were switched to the same growth medium but containing 1 ng/ml Doxycycline (Sigma, D9891) with different concentrations of compounds 1, 3 or 7, for 16 hours. Then, cells were subjected to viability assay according to manufacturer's instructions, using CellTiter-Glo luminescent cell viability assay kit (Promega, G7570). The plate was read using Infinite 200 PRO for luminescence, which indicated live-cell count.
Induction of ApoL1-G1 variant by doxycycline causes toxicity in T-REx-293 cell line. In order to identify potential inhibitors of ApoL1 toxicity, a cell-based high throughput screening of 200,000 chemical compounds was performed. Cells were incubated with a compound solution (at 10 μM concentration).

[2] = test system: T-REx-293 cells; test: cell toxicity assay for anti-proliferative effect (Cell-Titer Glo); type: cell-based; details: FIG. 2, 10 μM, 16 hours
Experimental: T-REx-293 cells were seeded at a density of 25K cells/well on fibronectin in 96-well plates and grown in DMEM with 10% FBS, 1% P/S medium. 24 hours post-seeding medium was changed to a fresh medium comprising the tested compounds (KS-1, KS-2, or KS-8) at a concentration of 5-10 μM. Non-treated cells were used as a negative control. After 16 hours one plate of the cells was taken for cell viability test using Cell-Titer Glo reagent (Promega). Cells on the other plate were imaged using Incucyte ZOOM system.

Structure (SMILES)	viability of ApoL1-G1 expressing cells [1]	cell protective effect against ApoL1 toxicity [1]	cell toxicity [1]	cell count determined via luminescence signal (relative light units, RLU) versus non-treated cells [2]
Cc1c(C)n(Cc2ccc(Br)cc2)c(=O)n(Cc2ccc(Br)cc2)c1=O [Compound 1]	concentration dependent viability increase	highest cell protective effect	without exhibiting a significant cell toxicity	
O=c1c2ccccc2n(Cc2ccc(Cl)cc2)c(=O)n1Cc1ccc(Cl)cc1 [Compound 3]	concentration dependent viability increase	highest cell protective effect	without exhibiting a significant cell toxicity	
COc1ccccc1C(=O)Nc1cccc(N2CCC(NC(C)c3cnn(-c4ccccc4)c3)CC2)c1 (stereo not drawn) [Compound 7]	concentration dependent viability increase	highest cell protective effect	without exhibiting a significant cell toxicity	
O=c1c2ccccc2n(Cc2ccncc2)c(=O)n1Cc1ccc(Cl)cc1 [KS-1]				lower
O=c1c2ccccc2n(Cc2ccc(Cl)cc2)c(=O)n1Cc1cccs1 [KS-2]				lower
O=c1c2ccccc2n(Cc2ccc(Cl)cc2)c(=O)n1C1CC=CC1 [KS-8]				lower
